Measurements published in ChEMBL document CHEMBL4043145, “Pyridine-pyrimidine amides that prevent HGF-induced epithelial scattering by two distinct mechanisms” (Bioorg Med Chem Lett, 2017).
pEC50: −log10 of the molar value.

Assays:
MCF7 [1] = test: Antiproliferative activity against human MCF7 cells at 10 uM relative to control; format: functional, cell-based
A2780 [2] = test: Antiproliferative activity against human A2780 cells; format: functional, cell-based
A2780 [3] = test: Cell cycle arrest in human A2780 cells assessed as accumulation at G2/M phase at 1000 nM (reference value: 19.42 to 20.43%); format: functional
A2780 [4] = test: Cell cycle arrest in human A2780 cells assessed as accumulation at G1 phase at 300 nM (reference value: 55.26 to 55.66%); format: functional
MCF7 [5] = test: Cell cycle arrest in human MCF7 cells assessed as accumulation at S phase at 1000 nM (reference value: 25.36 to 26.82%); format: functional
MCF7 [6] = test: Cell cycle arrest in human MCF7 cells assessed as accumulation at G1 phase at 100 nM (reference value: 47.47 to 52.3%); format: functional
MCF7 [7] = test: Cell cycle arrest in human MCF7 cells assessed as accumulation at S phase at 100 nM (reference value: 25.36 to 26.82%); format: functional
PC-3 = test: Cell cycle arrest in human p53-null PC3 cells assessed as accumulation at G2/M phase at 1000 nM (reference value: 18.37 to 18.96%); format: functional
MFE-280 [8] = test: Cell cycle arrest in human MFE280 cells assessed as accumulation at G1 phase at 100 nM (reference value: 64.99 to 67.86%); format: functional
MFE-280 [9] = test: Cell cycle arrest in human MFE280 cells assessed as accumulation at G2/M phase at 100 nM (reference value: 16.43 to 17.9%); format: functional
MFE-280 [10] = test: Cell cycle arrest in human MFE280 cells assessed as accumulation at G1 phase at 300 nM (reference value: 64.99 to 67.86%); format: functional
MFE-296 = test: Cell cycle arrest in human MFE296 cells assessed as accumulation at G1 phase at 1000 nM (reference value: 61.05 to 64.87%); format: functional
T47D [11] = test: Cell cycle arrest in human T47D cells assessed as accumulation at S phase at 1000 nM (reference value: 19.89 to 24.55%); format: functional
T47D [12] = test: Cell cycle arrest in human T47D cells assessed as accumulation at G2/M phase at 1000 nM (reference value: 20.58 to 28.8%); format: functional
T47D [13] = test: Cell cycle arrest in human T47D cells assessed as accumulation at G2/M phase at 100 nM (reference value: 20.58 to 28.8%); format: functional
MCF7 [14] = test: Induction of apoptosis in human MCF7 cells assessed as late apoptotic cells at 1000 nM by 7-AAD/Annexin staining-based assay (reference value: 1 to 2.1%); format: functional
MFE-280 [15] = test: Induction of apoptosis in human MFE280 cells assessed as early apoptotic cells at 300 nM by 7-AAD/Annexin staining-based assay (reference value: 5.1 to 6.2%); format: functional
MFE-280 [16] = test: Induction of apoptosis in human MFE280 cells assessed as early apoptotic cells at 100 nM by 7-AAD/Annexin staining-based assay (reference value: 5.1 to 6.2%); format: functional

O=C(Nc1ccc(-c2cccc(Cl)c2)cn1)c1cncnc1
pEC50 (MCF7 [1]): 7.54 | pEC50 (A2780 [2]): 7.26 | Activity (A2780 [3]): 77.58% | Activity (A2780 [4]): 24.74% | Activity (MCF7 [5]): 16.61% | Activity (MCF7 [6]): 43.58% | Activity (MCF7 [7]): 19.1% | Activity (PC-3): 76.06% | Activity (MFE-280 [8]): 61.48% | Activity (MFE-280 [9]): 18.95% | Activity (MFE-280 [10]): 39.17% | Activity (MFE-296): 8.62% | Activity (T47D [11]): 21.38% | Activity (T47D [12]): 43.07% | Activity (T47D [13]): 19.68% | Activity (MCF7 [14]): 2.4% | Activity (MFE-280 [15]): 5.4% | Activity (MFE-280 [16]): 4.9%
